# Source: patent US8759480B2, “Contoxin analogues and methods for synthesis of intramolecular dicarba bridge-containing peptides” (Syngene Limited, priority 2006, dated 2014)
# Several values for one entry are separate records, joined by “and”; a condition that tells them apart may be missing. Equal values may be shown once.
# Experiments:
# [1] = system: neuronal-type nicotinic receptors; format: cell-based, bovine
# [2] = system: neuronal-type nicotinic receptors; details: cited from earlier work
SMILES,Adrenaline Release 1st [1],Adrenaline Release 2nd [1],Adrenaline Release 3rd [1],Adrenaline Release 4th [1],Adrenaline Release % control [1],Adrenaline Release mean [1],Noradrenaline Release 1st [1],Noradrenaline Release 2nd [1],Noradrenaline Release 3rd [1],Noradrenaline Release 4th [1],Noradrenaline Release % control [1],Noradrenaline Release mean [1],effect on nicotine-stimulated release of adrenaline and noradrenaline (in words) [2]
"C[C@@H]1NC(=O)[C@@H]2CCCC[C@H](NC(=O)CN)C(=O)N[C@@H](CSSC[C@@H](C(N)=O)NC(=O)[C@H](CCCNC(=N)N)NC(=O)[C@H](Cc3cc4ccccc4[nH]3)NC1=O)C(=O)N[C@@H](CO)C(=O)N[C@@H](CC(=O)O)C(=O)N1CCCC1C(=O)N[C@@H](CCCNC(=N)N)C(=O)N2 (stereo partly drawn) [compound 118, [2,8]-Dicarba-[3,12]-Cystino Conotoxin ImI: NH2-Gly-c[Hag-Cys-Ser-Asp-Pro-Arg-Hag]-Ala-Trp-Arg-Cys)-NH2]",2.94% and 2.55%,4.40% and 3.63%,4.46% and 2.62%,4.09% and 3.31%,88.260% and 65.306%,3.97% and 3.03%,4.52% and 4.19%,6.29% and 5.86%,7.00% and 4.32%,7.34% and 5.51%,90.859% and 69.384%,6.29% and 4.97%,
"C[C@@H]1NC(=O)[C@@H]2CSC3(SC[C@@H](C(N)=O)NC(=O)[C@H](CCCNC(=N)N)NC(=O)[C@H](Cc4cc5ccccc5[nH]4)NC1=O)SC[C@H](NC(=O)CN)C(=O)N[C@@H](CS3)C(=O)N[C@@H](CO)C(=O)N[C@@H](CC(=O)O)C(=O)N1CCCC1C(=O)N[C@@H](CCCNC(=N)N)C(=O)N2 (stereo partly drawn) [Ctx ImI, α-conotoxin ImI]",,,,,,,,,,,,,inhibit the nicotine-stimulated release
